This assay concerns the target T1, magnesium chelatase (ChlI, His6-ChlD, His6-ChlH); porphyrin site (Synechocystis sp. PCC 6803, UniProt P73020).
T1 construct: recombinant from E. coli; His6 tags on ChlD and ChlH; copies are assay ratio; with Magnesium-chelatase subunit ChlI; Magnesium-chelatase subunit ChlD
Put plainly: continuous fluorometric MgDIX formation assay, Michaelis-Menten fit. The conditions noted are these: 5 mM ATP, Mg2+ (mutant not saturated with Mg2+), pH 7.7, 34 °C, I 0.1. The assay is classed as biochemical.

T1 sequence (P51634 whole entry, form open): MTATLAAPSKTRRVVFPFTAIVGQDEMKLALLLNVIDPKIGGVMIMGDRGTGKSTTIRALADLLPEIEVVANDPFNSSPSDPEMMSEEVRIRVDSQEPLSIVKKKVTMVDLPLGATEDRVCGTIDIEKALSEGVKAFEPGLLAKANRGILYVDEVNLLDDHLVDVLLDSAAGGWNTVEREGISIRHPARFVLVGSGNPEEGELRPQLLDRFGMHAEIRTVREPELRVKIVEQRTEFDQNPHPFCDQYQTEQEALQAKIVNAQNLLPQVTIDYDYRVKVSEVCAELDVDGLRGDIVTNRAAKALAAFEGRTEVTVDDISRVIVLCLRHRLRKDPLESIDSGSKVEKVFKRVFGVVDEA
T1 sequence (P73020 entry or part of it, form open): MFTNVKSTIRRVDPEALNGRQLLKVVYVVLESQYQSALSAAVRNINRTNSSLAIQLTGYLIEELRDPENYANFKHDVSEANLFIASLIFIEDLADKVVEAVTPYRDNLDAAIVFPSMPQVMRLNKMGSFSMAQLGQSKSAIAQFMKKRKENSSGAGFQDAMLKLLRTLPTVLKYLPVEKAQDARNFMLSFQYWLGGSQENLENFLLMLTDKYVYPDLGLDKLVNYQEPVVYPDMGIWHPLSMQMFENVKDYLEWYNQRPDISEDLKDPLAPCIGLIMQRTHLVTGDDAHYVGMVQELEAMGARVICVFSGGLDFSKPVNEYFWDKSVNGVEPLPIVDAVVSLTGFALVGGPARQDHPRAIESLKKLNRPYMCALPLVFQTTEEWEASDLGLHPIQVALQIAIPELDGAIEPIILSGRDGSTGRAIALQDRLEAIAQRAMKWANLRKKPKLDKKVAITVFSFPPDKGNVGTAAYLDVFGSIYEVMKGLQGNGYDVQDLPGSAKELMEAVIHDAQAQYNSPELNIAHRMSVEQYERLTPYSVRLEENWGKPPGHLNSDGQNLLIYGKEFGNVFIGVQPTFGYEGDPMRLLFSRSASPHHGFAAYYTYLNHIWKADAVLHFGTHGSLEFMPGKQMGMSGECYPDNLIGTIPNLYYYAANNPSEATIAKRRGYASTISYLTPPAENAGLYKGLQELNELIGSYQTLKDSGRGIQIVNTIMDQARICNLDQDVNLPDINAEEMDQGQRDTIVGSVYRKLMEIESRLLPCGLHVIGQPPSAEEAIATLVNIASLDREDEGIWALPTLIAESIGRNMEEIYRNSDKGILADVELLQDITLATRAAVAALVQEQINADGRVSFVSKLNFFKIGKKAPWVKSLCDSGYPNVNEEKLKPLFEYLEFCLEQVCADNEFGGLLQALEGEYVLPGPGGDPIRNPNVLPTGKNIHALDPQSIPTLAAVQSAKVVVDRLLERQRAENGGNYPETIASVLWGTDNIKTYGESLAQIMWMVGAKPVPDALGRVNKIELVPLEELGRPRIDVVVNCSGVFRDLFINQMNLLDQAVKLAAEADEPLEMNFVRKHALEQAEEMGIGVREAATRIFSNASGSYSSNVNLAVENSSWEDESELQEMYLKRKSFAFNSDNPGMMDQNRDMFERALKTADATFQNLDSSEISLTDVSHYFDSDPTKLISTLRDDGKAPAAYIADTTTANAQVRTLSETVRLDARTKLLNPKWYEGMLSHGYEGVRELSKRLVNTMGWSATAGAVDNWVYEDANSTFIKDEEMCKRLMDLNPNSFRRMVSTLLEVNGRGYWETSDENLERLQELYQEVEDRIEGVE
T1 sequence (P72772 whole entry R289A, form open, further chain): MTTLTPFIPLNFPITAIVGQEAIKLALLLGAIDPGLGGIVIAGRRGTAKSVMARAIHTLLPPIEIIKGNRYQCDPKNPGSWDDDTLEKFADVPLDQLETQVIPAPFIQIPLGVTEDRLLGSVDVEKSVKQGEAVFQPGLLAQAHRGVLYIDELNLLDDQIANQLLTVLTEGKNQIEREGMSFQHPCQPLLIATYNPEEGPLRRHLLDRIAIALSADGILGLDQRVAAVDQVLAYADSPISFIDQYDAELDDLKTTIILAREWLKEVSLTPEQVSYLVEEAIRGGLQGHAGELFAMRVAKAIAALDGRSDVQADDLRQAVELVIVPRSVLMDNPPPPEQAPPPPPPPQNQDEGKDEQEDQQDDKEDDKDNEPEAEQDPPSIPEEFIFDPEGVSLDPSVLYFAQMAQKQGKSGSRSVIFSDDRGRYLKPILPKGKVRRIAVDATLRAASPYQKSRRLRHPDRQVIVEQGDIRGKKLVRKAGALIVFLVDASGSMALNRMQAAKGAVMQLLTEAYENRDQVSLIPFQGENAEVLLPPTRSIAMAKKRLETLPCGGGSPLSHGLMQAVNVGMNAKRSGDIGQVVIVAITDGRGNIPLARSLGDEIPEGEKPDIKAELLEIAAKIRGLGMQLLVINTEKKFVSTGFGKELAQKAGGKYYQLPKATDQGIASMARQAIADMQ

Turning to `CC1=C(CCC(=O)O)c2cc3nc(cc4[nH]c(cc4C)cc4[nH]c(cc1n2)cc4C)C(C)=C3CCC(=O)O` [deuteroporphyrin IX], the Km amounted to 0.99 ± 0.12 µM.

Values taken from PMC3789969, “The Allosteric Role of the AAA^+ Domain of ChlD Protein from the Magnesium Chelatase of Synechocystis Species PCC 6803” (The Journal of Biological Chemistry, 2013).
